These results are taken from patent publication US9718828B2 (MERCK SHARP & DOHME CORP., priority 2011, dated 2017).

pIC50: −log10 of the molar value. Structures can show the parent of a compound that is named as a salt.

The target of one assay is hBTK (full-length BTK, 6HIS-tag cleaved) (Homo sapiens (Human), UniProt Q06187). Kind of assay: BTK enzymatic activity, LANCE TR-FRET assay (Assay Method C). The following applies: LANCE TR-FRET, 50 pM hBTK, 25 μM ATP; class 100-1000 is given as ≧100 nM-<1 μM; read-out: IC50 Btk activity values - Assay Method C. The class given is biochemical.
Sequence of hBTK (full-length BTK, 6HIS-tag cleaved) (Q06187 whole entry): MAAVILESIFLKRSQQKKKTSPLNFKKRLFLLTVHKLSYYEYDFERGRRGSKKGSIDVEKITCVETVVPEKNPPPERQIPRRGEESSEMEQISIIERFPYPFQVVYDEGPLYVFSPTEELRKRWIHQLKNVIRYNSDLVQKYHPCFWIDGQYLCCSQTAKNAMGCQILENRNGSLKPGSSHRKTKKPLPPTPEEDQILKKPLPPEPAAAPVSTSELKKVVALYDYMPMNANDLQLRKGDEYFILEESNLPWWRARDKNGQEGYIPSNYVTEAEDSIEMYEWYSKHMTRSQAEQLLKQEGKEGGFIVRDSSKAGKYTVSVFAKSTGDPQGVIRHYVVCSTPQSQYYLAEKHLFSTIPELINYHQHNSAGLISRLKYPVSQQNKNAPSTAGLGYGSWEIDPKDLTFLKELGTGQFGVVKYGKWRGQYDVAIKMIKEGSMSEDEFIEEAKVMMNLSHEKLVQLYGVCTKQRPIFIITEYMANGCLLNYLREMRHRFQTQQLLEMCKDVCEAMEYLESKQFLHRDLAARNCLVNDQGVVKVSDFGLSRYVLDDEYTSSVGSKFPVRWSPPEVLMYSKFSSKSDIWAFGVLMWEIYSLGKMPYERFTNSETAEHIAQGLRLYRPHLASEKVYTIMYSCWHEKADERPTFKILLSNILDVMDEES
With `CC(=O)N1CCC[C@@H](c2nc(-c3ccc(C(=O)Nc4cc(C(F)(F)F)ccn4)cc3)c3c(N)ncc(Cl)n23)C1` [Example 440, 4-{3-[(3R)-1-acetylpiperidin-3-yl]-8-amino-5-chloroimidazo[1,5-a]pyrazin-1-yl}-N-[4-(trifluoromethyl)pyridin-2-yl]benzamide], the pIC50 is more than 8.00.

Take `COCCC(=O)N1C[C@H](c2nc(-c3ccc(C(=O)Nc4cc(C(F)(F)F)ccn4)c(F)c3)c3c(N)nccn23)CC[C@@H]1C` [Example 392, 4-{8-amino-3-[(3R,6S)-1-(3-methoxypropanoyl)-6-methylpiperidin-3-yl]imidazo[1,5-a]pyrazin-1-yl}-2-fluoro-N-[4-(trifluoromethyl)pyridin-2-yl]benzamide]: the pIC50 was more than 8.00.

Take `CN1C[C@@H](c2nc(-c3ccc(C(=O)Nc4cc(C(F)(F)F)ccn4)cc3)c3c(N)nccn23)CC[C@@H]1C(F)(F)F` [Example 410, 4-{8-amino-3-[(3S,6R)-1-methyl-6-(trifluoromethyl)piperidin-3-yl]imidazo[1,5-a]pyrazin-1-yl}-N-[4-(trifluoromethyl)pyridin-2-yl]benzamide]: the pIC50 was more than 8.00.

Regarding `CNC(=O)N1C[C@@H](c2nc(-c3ccc(C(=O)Nc4cc(C(F)(F)F)ccn4)cc3)c3c(N)nccn23)CC[C@@H]1C(F)(F)F` [Example 412, (2R,5S)-5-[8-amino-1-(4-{[4-(trifluoromethyl)pyridin-2-yl]carbamoyl}phenyl)imidazo[1,5-a]pyrazin-3-yl]-N-methyl-2-(trifluoromethyl)piperidine-1-carboxamide], the negative-log IC50 (pIC50) was more than 8.00.

`Cc1ccnc(NC(=O)c2ccc(-c3nc([C@@H]4CCCN(C(=O)C5(C)COC5)C4)n4ccnc(N)c34)cc2)c1` [Example 352, 4-(8-amino-3-{(3R)-1-[(3-methyloxetan-3-yl)carbonyl]piperidin-3-yl}imidazo[1,5-a]pyrazin-1-yl)-N-(4-methylpyridin-2-yl)benzamide]: the pIC50 was more than 8.00.

As to `CN(C)C(=O)N1C[C@@H](c2nc(-c3ccc(C(=O)Nc4cc(C(F)(F)F)ccn4)cc3)c3c(N)nccn23)CC[C@@H]1C(F)(F)F` [Example 426, (2R,5S)-5-[8-amino-1-(4-{[4-(trifluoromethyl)pyridin-2-yl]carbamoyl}phenyl)imidazo[1,5-a]pyrazin-3-yl]-N,N-dimethyl-2-(trifluoromethyl)piperidine-1-carboxamide], the pIC50 is more than 8.00.

On to `C[C@H]1CC[C@@H](c2nc(-c3ccc(C(=O)Nc4cc(C(F)(F)F)ccn4)c(F)c3)c3c(N)nccn23)CN1C(=O)C1(C)COC1` [Example 476, 4-(8-amino-3-{(3R,6S)-6-methyl-1-[(3-methyloxetan-3-yl)carbonyl]piperidin-3-yl}imidazo[1,5-a]pyrazin-1-yl)-2-fluoro-N-[4-(trifluoromethyl)pyridin-2-yl]benzamide], for which the pIC50 is more than 8.00.

As to `C[C@H]1CC[C@@H](c2nc(-c3ccc(C(=O)Nc4cc(OC5CC5)ccn4)cc3)c3c(N)nccn23)CN1C(=O)C1(C)COC1` [Example 409, 4-(8-amino-3-{(3R,6S)-6-methyl-1-[(3-methyloxetan-3-yl)carbonyl]piperidin-3-yl}imidazo[1,5-a]pyrazin-1-yl)-N-[4-(cyclopropyloxy)pyridin-2-yl]benzamide], the pIC50 was more than 8.00.

On to `CN1C[C@@H](c2nc(-c3ccc(C(=O)Nc4cc(C(F)(F)F)ccn4)cc3)c3c(N)nccn23)CC[C@H]1C(F)(F)F` [Example 414, 4-{8-amino-3-[(3S,6S)-1-methyl-6-(trifluoromethyl)piperidin-3-yl]imidazo[1,5-a]pyrazin-1-yl}-N-[4-(trifluoromethyl)pyridin-2-yl]benzamide], for which the negative-log IC50 (pIC50) was more than 8.00.

With `CN(C)CC(=O)N1CCC[C@@H](c2nc(-c3ccc(C(=O)Nc4cc(C(F)(F)F)ccn4)cc3)c3c(N)nccn23)C1` [Example 347, 4-{8-amino-3-[(3R)-1-(N,N-dimethylglycyl)piperidin-3-yl]imidazo[1,5-a]pyrazin-1-yl}-N-[4-(trifluoromethyl)pyridin-2-yl]benzamide], the pIC50 was more than 8.00.

Consider `CC1(C(=O)N2CCC[C@@H](c3nc(-c4ccc(C(=O)Nc5cc(C(F)(F)F)ccn5)cc4)c4c(N)ncc(CO)n34)C2)COC1` [Example 471, 4-[8-amino-5-(hydroxymethyl)-3-{(3R)-1-[(3-methyloxetan-3-yl)carbonyl]piperidin-3-yl}imidazo[1,5-a]pyrazin-1-yl]-N-[4-(trifluoromethyl)pyridin-2-yl]benzamide], for which the pIC50 was more than 8.00.

Consider `Nc1nccn2c([C@H]3CN[C@@H](CO)CO3)nc(-c3ccc(C(=O)Nc4cc(C(F)(F)F)ccn4)cc3)c12` [Example 546, 4-{8-amino-3-[(2R,5S)-5-(hydroxymethyl)morpholin-2-yl]imidazo[1,5-a]pyrazin-1-yl}-N-[4-(trifluoromethyl)pyridin-2-yl]benzamide], for which the pIC50 was more than 8.00.

Take `CCOCC(=O)N1CCO[C@@H](c2nc(-c3ccc(C(=O)Nc4cc(C(F)(F)F)ccn4)cc3)c3c(N)ncc(C)n23)C1` [Example 537, 4-{8-amino-3-[(2R)-4-(ethoxyacetyl)morpholin-2-yl]-5-methylimidazo[1,5-a]pyrazin-1-yl}-N-[4-(trifluoromethyl)pyridin-2-yl]benzamide, TFA salt]: the pIC50 is more than 8.00.

Regarding `CC1(C(=O)N2CCC[C@@H](c3nc(-c4ccc(C(=O)Nc5cc(C(F)(F)F)ccn5)cc4)c4c(N)ncc(C=O)n34)C2)COC1` [Example 464, 4-(8-amino-5-formyl-3-{(3R)-1-[(3-methyloxetan-3-yl)carbonyl]piperidin-3-yl}imidazo[1,5-a]pyrazin-1-yl)-N-[4-(trifluoromethyl)pyridin-2-yl]benzamide], the negative-log IC50 (pIC50) is 7.00 to 8.00.

Turning to `CC1(C(=O)N2CCC[C@@H](c3nc(-c4ccc(C(=O)Nc5cccnn5)cc4)c4c(N)nccn34)C2)COC1` [Example 357, 4-(8-amino-3-{(3R)-1-[(3-methyloxetan-3-yl)carbonyl]piperidin-3-yl}imidazo[1,5-a]pyrazin-1-yl)-N-pyridazin-3-ylbenzamide], the pIC50 was 6.00 to 7.00.

Consider `COCc1cnc(N)c2c(-c3ccc(C(=O)Nc4cc(C(F)(F)F)ccn4)cc3)nc([C@@H]3CC[C@H](C)N(C(=O)C4(C)COC4)C3)n12` [Example 450, 4-[8-amino-5-(methoxymethyl)-3-{(3R,6S)-6-methyl-1-[(3-methyloxetan-3-yl)carbonyl]piperidin-3-yl}imidazo[1,5-a]pyrazin-1-yl]-N-[4-(trifluoromethyl)pyridin-2-yl]benzamide], for which the pIC50 is more than 8.00.

On to `CC1(C(=O)N2CCC[C@@H](c3nc(-c4ccc(C(=O)Nc5ccc(C(F)(F)F)cn5)cc4)c4c(N)nccn34)C2)COC1` [Example 359, 4-(8-amino-3-{(3R)-1-[(3-methyloxetan-3-yl)carbonyl]piperidin-3-yl}imidazo[1,5-a]pyrazin-1-yl)-N-[5-(trifluoromethyl)pyridin-2-yl]benzamide], for which the pIC50 is 7.00 to 8.00.

In the case of `Cc1cnc(N)c2c(-c3ccc(C(=O)Nc4cc(C(F)F)ccn4)cc3F)nc([C@@H]3CC[C@H](C)N(C(=O)C4(C)COC4)C3)n12` [Example 462, 4-(8-amino-5-methyl-3-{(3R,6S)-6-methyl-1-[(3-methyloxetan-3-yl)carbonyl]piperidin-3-yl}imidazo[1,5-a]pyrazin-1-yl)-N-[4-(difluoromethyl)pyridin-2-yl]-3-fluorobenzamide], the negative logarithm of the IC50 (pIC50) was more than 8.00.

For `Nc1ncnc2c1c(-c1ccc(C(=O)Nc3cc(C(F)(F)F)ccn3)cc1)nn2[C@H]1CCCc2nn(CCO)cc21` [Example 564, 4-{4-amino-1-[(4S)-2-(2-hydroxyethyl)-4,5,6,7-tetrahydro-2H-indazol-4-yl]-1H-pyrazolo[3,4-d]pyrimidin-3-yl}-N-[4-(trifluoromethyl)pyridin-2-yl]benzamide, TFA salt], the pIC50 is more than 8.00.

For `Cc1cnc(N)c2c(-c3ccc(C(=O)Nc4cc(OC5CC5)ccn4)cc3)nc([C@@H]3CCCN(C(=O)C4(C)COC4)C3)n12` [Example 456, 4-(8-amino-5-methyl-3-{(3R)-1-[(3-methyloxetan-3-yl)carbonyl]piperidin-3-yl}imidazo[1,5-a]pyrazin-1-yl)-N-[4-(cyclopropyloxy)pyridin-2-yl]benzamide], the pIC50 is more than 8.00.

`Cn1cc2c(n1)CCC[C@H]2n1nc(-c2ccc(C(=O)Nc3cc(C(F)(F)F)ccn3)cc2)c2c(N)ncnc21` [Example 557, 4-{4-amino-1-[(4R)-2-methyl-4,5,6,7-tetrahydro-2H-indazol-4-yl]-1H-pyrazolo[3,4-d]pyrimidin-3-yl}-N-[4-(trifluoromethyl)pyridin-2-yl]benzamide, TFA salt]: the pIC50 was 6.00 to 7.00.

For `C[C@H](O)C(=O)N1CCC[C@@H](c2nc(-c3ccc(C(=O)Nc4cc(C(F)(F)F)ccn4)cc3)c3c(N)nccn23)C1` [Example 345, 4-(8-amino-3-{(3R)-1-[(2S)-2-hydroxypropanoyl]piperidin-3-yl}imidazo[1,5-a]pyrazin-1-yl)-N-[4-(trifluoromethyl)pyridin-2-yl]benzamide], the pIC50 was more than 8.00.

Consider `CC1(C(=O)N2CCC[C@@H](c3nc(-c4ccc(C(=O)Nc5cc(C(F)(F)F)ccn5)cc4F)c4c(N)ncc(Cl)n34)C2)COC1` [Example 447, 4-(8-amino-5-chloro-3-{(3R)-1-[(3-methyloxetan-3-yl)carbonyl]piperidin-3-yl}imidazo[1,5-a]pyrazin-1-yl)-3-fluoro-N-[4-(trifluoromethyl)pyridin-2-yl]benzamide], for which the pIC50 is more than 8.00.

Turning to `Nc1nccn2c([C@H]3CC[C@H](C(F)(F)F)N(C(=O)C4CC4)C3)nc(-c3ccc(C(=O)Nc4cc(F)ccn4)cc3)c12` [Example 424, 4-{8-amino-3-[(3S,6R)-1-(cyclopropylcarbonyl)-6-(trifluoromethyl)piperidin-3-yl]imidazo[1,5-a]pyrazin-1-yl}-N-(4-fluoropyridin-2-yl)benzamide], the pIC50 is more than 8.00.

Staying with this assay, now noted: Table D; Assay Method C (LANCE TR-FRET), 50 pM hBTK, 25 μM ATP; read-out: IC50 BTK activity value.
Consider `C[C@H]1CC[C@@H](c2nc(-c3ccc(C(=O)Nc4cc(C(F)(F)F)ccn4)c(F)c3)c3c(N)nccn23)CN1C(=O)C1(C)COC1` [Example 476, 4-(8-amino-3-{(3R,6S)-6-methyl-1-[(3-methyloxetan-3-yl)carbonyl]piperidin-3-yl}imidazo[1,5-a]pyrazin-1-yl)-2-fluoro-N-[4-(trifluoromethyl)pyridin-2-yl]benzamide], for which the pIC50 was 9.49.

For the compound `Cc1cnc(N)c2c(-c3ccc(C(=O)Nc4cc(OC5CC5)ccn4)cc3)nc([C@@H]3CCCN(C(=O)C4(C)COC4)C3)n12` [Example 456, 4-(8-amino-5-methyl-3-{(3R)-1-[(3-methyloxetan-3-yl)carbonyl]piperidin-3-yl}imidazo[1,5-a]pyrazin-1-yl)-N-[4-(cyclopropyloxy)pyridin-2-yl]benzamide], the pIC50 was 9.40.

Turning to `C[C@H](O)C(=O)N1CCC[C@@H](c2nc(-c3ccc(C(=O)Nc4cc(C(F)(F)F)ccn4)cc3)c3c(N)nccn23)C1` [Example 345, 4-(8-amino-3-{(3R)-1-[(2S)-2-hydroxypropanoyl]piperidin-3-yl}imidazo[1,5-a]pyrazin-1-yl)-N-[4-(trifluoromethyl)pyridin-2-yl]benzamide], the pIC50 was 9.33.

A word on the pIC50: it is −log10 of the IC50, conventionally taken in molar units.
